Ends that are not written are not given here.

We go through five sequences from US12491229B2, “Stabilized peptide composition” (Shionogi & Co., Ltd., priority 2014, dated 2025).

Holding throughout (format): physicochemical
Series [1] in a line: Solubility study 1 of each peptide against solution pH. As to conditions: pH 2-12, peptide mixed at 3 mg/mL in water for injection adjusted with hydrochloride or sodium hydroxide solution; FIG. 1. On the procedure:
Solubility of the peptides described as SEQ ID NOs: 1-5 was evaluated with the condition of pH 2-12. Hydrochloride solution or sodium hydroxide solution was added to water for injection to adjust pH, and each peptide was mixed with the adjusted solution, where the peptide concentration was set to 3 mg/mL. The mixed solution was filtered, the filtered solution was diluted with 10-20 parts of water for injection, and peak area of each peptide was obtained by liquid chromatography (same test procedure described above). From peak area of each peptide, dilution ratio of the filtered solution, peak area and concentration of each standard solution described above, peptide concentration was obtained.

Series [2] in a line: Solubility study 2 of each peptide against pH (white turbidity on decreasing pH). The following applies: peptide 1.5 mg/g, pH decreased gradually with hydrochloride solution. Also on record: key: ∘: dissolution; x: white turbidity. On the procedure: As shown in the study 1 described above, when the peptide was mixed directly with water for injection, the bulk was formed, and it was difficult to dissolve the bulk. So, solubility of peptides was evaluated thermodynamically by dissolving the peptide completely once with high pH, and decreasing the solution pH gradually to check pH when white turbidity was observed.
The peptide described as SEQ ID NO: 1 or SEQ ID NO: 2 was dissolved into the solution with pH10 and solubility was examined by decreasing the solution pH in each. 15 mg of the peptide described as SEQ ID NO: 1 or SEQ ID NO: 2 was mixed with water, 0.1 mol/L sodium hydroxide solution was added for dissolution, and pH was adjusted to 10. Peptide concentration was adjusted to 1.5 mg/g. In each sample solution, hydrochloride solution was added to decrease pH gradually, and the appearance of the solution was checked.

The nature of series [3]: Solution stability of each peptide against pH. As to conditions: for stability in the solution state: conclusion from studies on stability in solution with different pH. On the procedure:
Content and related substances were measured in accordance with the method of liquid chromatography described in general test section in Japan Pharmacopeia. To prepare the test sample, water for injection was added to the lyophilized sample, and each peptide concentration was adjusted to 0.12 mg/mL. Peak area of each peptide in the sample and the one in each standard of the drug substance were obtained, and content was calculated from dilution ratio and ratio of peak area in the sample to one in each standard described below. Residual of the content in the stability test was against the content at the time when the lyophilized sample was prepared. Related substances were calculated by ratio of peak area of the target related substance to all related substances and drug substances in each sample solution. The level of increase of the related substances was evaluated by the difference from the related substance at the moment when the lyophilized sample was prepared.
Standard solution for measuring content of the peptide described as SEQ ID NO: 1 or SEQ ID NO: 2 was prepared in each by dissolving the peptide described above into 1.6 mg/mL phosphate solution and by adjusting each peptide concentration into 0.15 mg/mL. Standard solution for measuring content of the peptide described as SEQ ID NO: 3, SEQ ID NO: 4 or SEQ ID NO: 5 was prepared in each by dissolving the peptide described above into 12.1 mg/mL of 2-amnino-2-hydroxymethyl-1,3-propanediol aqueous solution and by adjusting each peptide concentration to 0.15 mg/mL. For the stationary phase of the liquid chromatography, column with octadecyl group was used, and the measurement was performed by gradient elution method. Flow rate in the measurement was set to 1.0 mL/min.
Stability of the peptide described as SEQ ID NOs: 1-5 was evaluated in each.
The sample solution prepared with the compositions above was stored for 6 hours at 25° C. Then, the level of increase of related substances derived from the peptides described as SEQ ID NO: 1, SEQ ID NO: 2 or SEQ ID NO: 3 was measured in each, and residual of the peptides described as SEQ ID NO: 4 or SEQ ID NO: 5 was measured in each. The analytical procedure for the related substances and peptide contents was described above.

As for EYYELFVNI [SEQ ID NO: 1, EYYELFVNI], the “Solubility of each peptide against pH” value in series [1] is reported as “decreased with decreasing pH of the solution”. In addition, the Solution state entry in series [2] (pH 5.4) is “x”; in series [2] (pH 5.6), “∘”; in series [2] (pH 6) it was “∘”; in series [2] (pH 6.6), “∘”; in series [2] (pH 7.9), “∘”; in series [2] (pH 10), “∘”. For the same sequence, the “stability in the solution state” value in series [3] was “good stability”.

Turning to IYNEYIYDL [SEQ ID NO: 2, IYNEYIYDL], the “Solubility of each peptide against pH” value in series [1] is “decreased with decreasing pH of the solution”. The Solution state entry is on record as “x” in series [2] (pH 5); “∘” in series [2] (pH 5.5); “∘” in series [2] (pH 7); “∘” in series [2] (pH 8); “∘” in series [2] (pH 9); “∘” in series [2] (pH 10). The “stability in the solution state” value in series [3] was “poor stability”.

In the case of “KTVNELQNL (listed as Homo sapiens) [SEQ ID NO: 5, peptide derived from KOC1 protein]”, the “stability in the solution state” value in series [3] is “poor stability”. In addition, the “residual of the peptide” value in series [3] (five-peptide solution (Table 2) pH 8-11 stored for 6 hours at 25° C., FIGS. 2-4, 2-5) was “prominently decreased and solution stability decreased with increasing solution pH”.

With “RYCNLEGPPI (listed as Homo sapiens) [SEQ ID NO: 3, peptide derived from URLC10 protein]”, the “stability in the solution state” value in series [3] was “poor stability”. Also, the “level of increase of related substances derived from the peptide” value in series [3] (five-peptide solution (Table 2) pH 8-11 stored for 6 hours at 25° C., FIGS. 2-1 to 2-3) was “increased and solution stability decreased, when solution pH was 10.0-11.0”.

Take VYGIRLEHF [SEQ ID NO: 4, VYGIRLEHF]: the “Solubility of each peptide against pH” value in series [1] is “low when solution pH was around neutral”. The “stability in the solution state” value in series [3] was “good stability”.
